How the values were obtained:
[1] = test system: deficit of memory induced by cycloheximide; assay: Passive avoidance test; type: in vivo; conditions: Dose 0.032 mg/kg i.p.; ddY strain male mice given cycloheximide 30 mg/kg S.C.; step-down latency 24 hours after training
Description: 6-Weeks old ddY strain male mice (20 per group) were used. The effect of the test compound on deficit of memory induced by cycloheximide (a protein synthesis inhibitor) in passive avoidance task was examined.
The apparatus consists of a grid floor enclosed by a transparent acryl glass wall each section of which was 30 cm². At the center of this grid a wooden platform of 4 x 4 x 4 cm was fixed. This apparatus was set in a wooden semisoundproof box of 35 x 35 x 90 cm fitted with a 15W tungsten lamp.
Each mouse in groups (A), (B) and (C) was placed on the platform.
When the mouse stepped down from the platform and placed all its paws on the grid floor, an intermittent electrical footshock (1Hz, 0.5 sec, 60V, DC) was delivered for 15 seconds through the grid floor. […]
24 Hours after the training, each mouse was placed again on the platform and the response latency to step down from the platform was measured to an extent of 300 seconds at the longest.
Results were recorded as the mean response latency of step down for each experimental group of mice. […]

acetylcholinesterase = molecular target: T1, acetylcholinesterase (Rattus norvegicus, UniProt P37136); assay: Inhibition of acetylcholinesterase (enzyme assay); type: biochemical
T1 construct: The acetylcholinesterase used in this test was obtained from rat's corpus striatum; from tissue; host or cells: rat corpus striatum
T1 sequence (P37136 32-614): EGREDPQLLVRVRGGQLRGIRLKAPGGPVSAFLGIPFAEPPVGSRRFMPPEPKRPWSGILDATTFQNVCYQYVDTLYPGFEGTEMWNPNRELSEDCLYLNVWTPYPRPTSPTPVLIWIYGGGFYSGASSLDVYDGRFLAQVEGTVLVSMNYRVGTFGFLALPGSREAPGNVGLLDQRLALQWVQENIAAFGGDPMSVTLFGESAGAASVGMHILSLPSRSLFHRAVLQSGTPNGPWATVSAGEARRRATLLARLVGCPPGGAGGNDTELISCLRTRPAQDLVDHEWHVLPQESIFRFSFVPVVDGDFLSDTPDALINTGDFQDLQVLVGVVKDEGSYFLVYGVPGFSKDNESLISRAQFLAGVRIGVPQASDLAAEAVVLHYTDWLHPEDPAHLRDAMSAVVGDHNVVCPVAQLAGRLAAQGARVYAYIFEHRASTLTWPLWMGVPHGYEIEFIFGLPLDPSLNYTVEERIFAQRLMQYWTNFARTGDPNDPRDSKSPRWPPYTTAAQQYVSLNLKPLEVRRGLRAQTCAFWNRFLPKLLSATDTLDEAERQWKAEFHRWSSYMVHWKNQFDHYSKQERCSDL
Description: The ability to inhibit acetylcholinesterase was determined by the method (enzyme assay) described in Clinica Chimica Acta, 115 (1981) 163-170. The acetylcholinesterase used in this test was obtained from rat's corpus striatum.

| Structure (SMILES) | Percentage of Recovery (%) [1] [%] | IC50 (acetylcholinesterase) [nM] |
| --- | --- | --- |
| CC1(C)CCc2c(nc3cc(Cl)ccc3c2N)C1 [9-Amino-6-chloro-3,3-dimethyl-1,2,3,4-tetrahydroacridine] | 95 |  |
| Cc1ccc2c(N)c3c(nc2c1)CC(C)(C)CC3O (racemic) [(±)-9-Amino-1-hydroxy-3,3,6-trimethyl-1,2,3,4-tetrahydroacridine] |  | 870 |

— patent EP0371388A2, “Acridine derivatives” (FUJISAWA PHARMACEUTICAL CO., LTD., priority 1988, dated 1990)
